# System: human respiratory syncytial virus (RSV) in LLC-MK2 cells
# Test: RSV inhibition assay in LLC-MK2 cells (immunoperoxidase), PBS
# Format: cell-based
# Settings: Carrageenan's IC50; Carrageenan alone
# Description: Additional studies were performed to determine the synergistic anti-viral effects of diacetyltartaric acid esters of mono- and diglycerides, lipophilic monoglycerides (MG) and carrageenan. These studies were carried out using […] and PBS as the diluent. The RSV inhibition assay semi-quantitatively determines the ability of a test material (antibody or other bioactive compound) to inhibit the infection of monkey kidney cells (LLC-MK2) by human respiratory syncytial virus (RSV). Infected cells are identified using an immunoperoxidase method and counted. The method is performed in a microtiter format and is described briefly below:
# LLC-MK2 rhesus monkey kidney cells were obtained from the American Type Culture Collection and were cultured in Eagles […] essential medium (EMEM) supplemented with 10% fetal bovine serum. […] Plates were then rinsed as above with PBS/CEA, and the number of stained RSV-infected cells (IC) per well determined using an inverted microscope. The number of ICs' in triplicate wells was compared with the number of ICs' of virus control wells (mean of 9)and the percent inhibition (PI) calculated; [PI=1.0-[Mean ICs' per well of test sample/Mean ICs' per well of virus control]. […]
substance,measurement,value
Carrageenan,Enhancement Factor,1.0
